Read-outs that look alike come from different tables or passages of the source.
Tests used:
[1] = Cytotoxicity LC50 (XTT assay for cell viability); type: cell-based; settings: human, transfected HEK 293 cells that express mKate2-tagged Tau;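 also: cells carry doxycycline-repressible Tau, induced by withdrawing doxycycline for 72 h before compound exposure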
Procedure: The cells were grown in the presence of the antibiotic doxycycline. When the antibiotic is removed the cells produce Tau (which can be quantified), thus allowing the test compounds' effects on Tau's production to be compared. Doxycycline was removed for 72 hours prior to exposure to the test compounds to promote sufficient Tau production. Cells were subsequently plated into plates for each of the assays described below.

Autophagy Markers = assay: Autophagy markers (Cyto-ID assay) in HEK 293 cells; type: cell-based, Human
Procedure: The dye used in the kit prevents its accumulation within lysosomes, but enables labelling of vacuoles associated with the autophagy pathway using the LC3 biomarker.
(§1) The test compounds (along with CytoID™ dye and Hoechst stain) were added to the cells and incubated for 3 hours. Reference compounds were also used in each plate, Rapamycin was used for autophagy induction and chloroquine was used for lysosomal inhibition. After 3 hours test compound was aspirated off and kept. Cells were then washed and read using a fluorescence plate reader. Hoescht, Cyto-ID™ and mKate2 were measured using 3 distinct wavelengths on the plate reader. The Hoescht measurement allowed normalisation of results across wells. After reading, test compound was re-added and the cells are left for a further 21 hours. At the 24 hour time point cells were once again washed and plates read using the fluorescence plate reader.
2) Test samples were prepared in warm FluoroBrite™ DMEM and with 10% FBS and 1% NEAA (FB-DMEM). Rapamycin 200 nM (Enzo #BML-A275-0025) was used for autophagy induction and […] chloroquine was used for lysosomal inhibition (bafilomycin or similar compounds were not used as they give a false negative result in the assay). Dimethyl Sulfoxide 1:1000 (DMSO; Fisher #BP231-100) was used as control. Autophagosome marker Cyto ID™ (1:500; Enzo #ENZ-51031-k200) and Hoechst (1:200) was added to these test sample preparations before treating the cells.
7) At 24 hours post reaction all medium was aspirated and the plate was washed 3 times with warm FB-DMEM, and read again for Hoescht (Ex=355 nm Em=446 nm), CytoID™ (Ex=463 nm; Em=534 nm) and mKate2 (Ex=575 nm; Em=630 nm) in 80 μl of FB-DMEM.

phospholipase D (PLD) = assay: PLD assay (conversion of phospholipids to phosphatidylethanols in presence of ethanol, LC/MS); type: cell-based, mice; settings: PLD activation, fold; 24 hours incubation
Procedure: Cells were incubated with test compound for 24 hours. 25 minutes prior to harvest at 24 hours, 3% ethanol solution was added to the wells to catalyze cleavage of the phospholipid. Cells were then placed on ice, washed and harvested. The harvested cells were centrifuged and the supernatant was aspirated and the pellet kept. The pellet was resuspended and chloroform/methanol lipid extraction was performed. The sample was centrifuged and the organic layer was separated, dried under nitrogen and stored at −80° C. On the day of analysis, samples were resuspended and analysed by LC/MS. All phosphatidylethanol species (PEtOH32-40:0-6:16/18:0/1) were combined together and represented as total lipid content (all lipid species).
(§2) The assay was run in e18 primary cortical neurons from PLD1 or PLD2 KO mice cultured for 14 days. Alternatively, the assay can be run in the cells described above in the presence of excess PLD1 or PLD2 inhibitor to preclude that particular action from contributing to the effect of the drug.
(§3) 4) On the day of experiment, cells were washed in warmed HBSS twice before media containing test compound (n=3 per compound per dose), inhibitor (355 nM ML298 or 50 nM VU0150669), or vehicle are added to the wells (1.5 mL in 6 well, 600 μL in 12 well). Plates were incubated for 24 hours at 37° C. with 5% CO2.
5) 25 minutes prior to harvest, a 165 μL of a 3% ethanol solution was added to each well.
PLD activation converts phospholipids to phosphatidylethanols in the presence of ethanol. […] FIPI is a non-competitive inhibitor of PLD activity and was used as a negative control.

Tau/aggregate = Tau/aggregate inhibition in HEK 293 cells expressing mKate2-tagged Tau; type: cell-based, Human; settings: Homo sapiens, HEK293
Procedure: (§4) 1) HEK cells with tet-regulated expression of mKate2 tagged Tau were grown in DMEM medium (Dulbecco's Modified Eagle's Medium) containing 0.5 μg/mL doxycycline (Dox)(MP-Bio#198955), after 3-5 days Dox was removed by washing the cells twice with sterile phosphate buffered saline (PBS; Invitrogen#14190-144), cells were left in DMEM without Dox for 72 hours (to further clear remaining Dox in cells).
as §1
(§5) Proteostat™ assay was used to detect aggresomes via measurement of p62. Aggresomes are inclusion bodies that form when the ubiquitin-proteasome machinery is overwhelmed with aggregation-prone proteins. Typically, an aggresome forms in response to some cellular stress, such as hyperthermia, viral infection, or exposure to reactive oxygen species. Aggresomes may provide a cytoprotective function by sequestering the toxic, aggregated proteins and may also facilitate their ultimate elimination from cells by autophagy. Following the final plate read described in the Cyto-ID™ assay described above, Proteostat™ detection reagent was added to every well and the plate was incubated for 15 minutes. Following this incubation, the plate was read by fluorescence plate reader at the specified wavelength. After this plate read, the cells were fixed by incubating with warm paraformaldehyde for 8 minutes. The fixed cells were then read by plate reader as before.
Western blot assays were performed to determine protein changes in Tau and p62. Cells were cultured as above and incubated with test compounds for 24 h. Following test compound incubation, the test compound was aspirated off and cells were washed before harvesting. Cells were spun at a low speed and supernatant was aspirated to leave the cell pellet. The cell pellet was then homogenized in buffer, centrifuged at high speed, and the supernatant aspirated and further separated into total fraction and aggregate fraction allowing quantification of soluble and insoluble proteins. Western blots were run on the samples, gels transferred to nitrocellulose and incubated with antibodies for Tau and p62. After incubation with secondary antibodies for detection, the bands of protein were quantified by chemiluminescence.

[2] = Photodiode array (PDA) detection of compound in mouse brain; type: in vivo; settings: FIG. 1
Source text: FIG. 1 is a graph showing a photodiode array (PDA) spectrum of WHYKD8 in mouse brain.
A photodiode array (PDA) was used to detect WHYKD8 in mouse brain (FIG. 1).

PLD2 = target: T1, PLD2 (Homo sapiens, UniProt O14939); assay: PLD2 activity: Proteostat/mKate2 with PLD1 inhibitor VU0150669; type: cell-based; settings: for EC50: with PLD1 inhibitor VU0150669, 50 nM
T1 construct: endogenous in cells; host or cells: HEK 293 (Jump-In) cells with tet-regulated mKate2-Tau
T1 sequence (O14939 whole entry): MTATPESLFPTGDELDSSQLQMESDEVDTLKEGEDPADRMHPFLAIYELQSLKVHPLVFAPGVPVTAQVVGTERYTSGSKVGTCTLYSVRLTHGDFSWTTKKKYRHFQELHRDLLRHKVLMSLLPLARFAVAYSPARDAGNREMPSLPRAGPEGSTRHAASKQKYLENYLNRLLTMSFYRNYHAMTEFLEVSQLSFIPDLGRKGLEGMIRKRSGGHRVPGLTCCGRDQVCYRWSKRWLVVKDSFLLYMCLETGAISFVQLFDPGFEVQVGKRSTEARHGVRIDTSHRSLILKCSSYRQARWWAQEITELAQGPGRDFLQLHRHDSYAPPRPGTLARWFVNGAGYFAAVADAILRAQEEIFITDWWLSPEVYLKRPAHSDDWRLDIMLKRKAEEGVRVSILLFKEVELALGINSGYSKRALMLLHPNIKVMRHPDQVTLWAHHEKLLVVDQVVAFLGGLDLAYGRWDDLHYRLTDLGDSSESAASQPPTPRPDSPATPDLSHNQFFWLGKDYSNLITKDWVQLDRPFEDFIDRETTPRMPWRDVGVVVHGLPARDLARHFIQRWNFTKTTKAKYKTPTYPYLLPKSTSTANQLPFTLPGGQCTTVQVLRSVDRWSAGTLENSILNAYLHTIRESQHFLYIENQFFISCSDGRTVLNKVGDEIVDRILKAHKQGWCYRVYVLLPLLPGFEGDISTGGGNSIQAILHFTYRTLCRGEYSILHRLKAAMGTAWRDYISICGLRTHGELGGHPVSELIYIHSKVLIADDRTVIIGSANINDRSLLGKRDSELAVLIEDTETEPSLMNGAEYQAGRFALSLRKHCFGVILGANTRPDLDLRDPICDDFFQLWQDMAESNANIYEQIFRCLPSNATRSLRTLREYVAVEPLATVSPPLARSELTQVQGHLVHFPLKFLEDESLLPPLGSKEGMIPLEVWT
Procedure: as §2, §3

aggregates (Proteostat) = assay: Proteostat protein aggregation assay EC50; type: cell-based; settings: Homo sapiens; 50% reduction of Proteostat levels (fluorescent marker of aggregates)
Source text: as §5
8) Detection solution was prepared by adding 10 μl Proteostat™ detection reagent (ENZ-51023-KP002) and 200 μL of 10× assay buffer into 1790 μL water and mixing well.
9) 20 μL was added per well (each well had 80 μl of Fluorobrite™ media with no FBS) and incubated in the dark for 15 min at room temperature.
10) Fluorescence for Proteostat™ (Ex=550 nm; Em=600 nm) was then read.

mKate2 tagged Tau = assay: Tau-mKate2 fluorescence EC50; type: cell-based; settings: Homo sapiens; 50% reduction of mKate2 fluorescence (tau tag)
Procedure: as §4
as §1, with “After 3 hours test compound was aspirated off and kept.” left out, “The Hoescht measurement allowed normalisation of results across wells.” left out
5) Treatment plate was then washed quickly 3 times with warm FB-DMEM (100 μL/well). […] At this point, the plate was ready for reading. See details in Reading Plate section. Hoescht was read at Excitation wavelength (Ex)=355 nm & Emission wavelength (Em)=446 nm. mKate2 was read at Ex=575 nm & Em=630 nm. Cyto-ID™ was read at Ex=463 nm & Em=534 nm. […]

PLD1 = target: T2, PLD1 (Homo sapiens, UniProt Q13393); assay: PLD1 activity: Proteostat/mKate2 with PLD2 inhibitor ML298; type: cell-based; settings: with ML298, PLD2 inhibitor (355 nM)
T2 construct: endogenous in cells; host or cells: HEK 293 (Jump-In) cells with tet-regulated mKate2-Tau
T2 sequence (Q13393 1-1074): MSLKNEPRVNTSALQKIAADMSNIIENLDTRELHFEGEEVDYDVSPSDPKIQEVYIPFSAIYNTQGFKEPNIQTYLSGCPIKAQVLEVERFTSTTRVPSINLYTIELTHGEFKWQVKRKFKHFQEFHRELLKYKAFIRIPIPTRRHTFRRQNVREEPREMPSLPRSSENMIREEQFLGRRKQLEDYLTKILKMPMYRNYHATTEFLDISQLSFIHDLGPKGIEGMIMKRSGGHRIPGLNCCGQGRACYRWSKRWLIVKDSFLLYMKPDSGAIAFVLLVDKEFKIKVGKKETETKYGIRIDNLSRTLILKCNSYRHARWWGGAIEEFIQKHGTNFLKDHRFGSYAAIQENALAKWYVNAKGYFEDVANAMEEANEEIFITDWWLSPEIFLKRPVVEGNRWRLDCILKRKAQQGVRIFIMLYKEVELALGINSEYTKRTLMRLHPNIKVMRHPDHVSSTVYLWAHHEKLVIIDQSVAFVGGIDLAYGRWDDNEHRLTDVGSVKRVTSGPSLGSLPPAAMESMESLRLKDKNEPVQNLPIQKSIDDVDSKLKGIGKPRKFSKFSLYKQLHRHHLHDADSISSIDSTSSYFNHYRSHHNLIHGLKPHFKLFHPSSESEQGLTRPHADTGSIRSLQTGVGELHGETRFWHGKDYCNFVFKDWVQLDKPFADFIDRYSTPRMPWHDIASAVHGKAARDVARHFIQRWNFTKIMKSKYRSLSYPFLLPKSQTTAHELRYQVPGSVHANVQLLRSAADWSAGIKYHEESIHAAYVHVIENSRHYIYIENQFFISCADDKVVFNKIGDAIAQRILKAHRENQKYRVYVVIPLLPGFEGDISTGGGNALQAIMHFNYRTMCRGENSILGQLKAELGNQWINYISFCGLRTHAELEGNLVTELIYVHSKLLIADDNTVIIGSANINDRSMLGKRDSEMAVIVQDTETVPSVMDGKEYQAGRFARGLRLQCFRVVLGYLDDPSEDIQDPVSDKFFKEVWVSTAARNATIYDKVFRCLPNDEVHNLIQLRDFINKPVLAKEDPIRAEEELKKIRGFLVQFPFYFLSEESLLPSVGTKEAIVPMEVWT
Procedure: as §2, §3

Row | Compound | CC50 ([1]; read-out: Cyto-toxixity LC50) [µM] | % Increase Autophagy Markers (Autophagy Markers) [%] | PLD (phospholipase D (PLD)) [X] | inhibition at 1 µM (Tau/aggregate) [%] | detection in mouse brain [2] | CC50 ([1]; XTT assay, 200 = upper concentration limit tested, read-out: LC50 (the source's name)) [µM] | Proteostat PLD2/PLD1 ratio (PLD2; Proteostat readout) | mKate2 PLD2/PLD1 ratio (PLD2; mKate2 readout) | EC50 (PLD2; read-out: Proteostat (nM) using pharmacological inhibitor PLD2) [nM] | EC50 (PLD2; read-out: mKate2 (nM) using pharmacological inhibitor PLD2) [nM] | EC50 (aggregates (Proteostat)) [nM] | EC50 (mKate2 tagged Tau) [nM] | EC50 (PLD1; read-out: Proteostat (nM) using pharmacological inhibitor PLD1) [nM] | EC50 (PLD1; read-out: mKate2 (nM) using pharmacological inhibitor PLD1) [nM]
1 | Oc1ccc(CCNc2ncnc3ccc(Cl)cc23)cc1 [WHYKD8] | > 100 | 25 | 2.8 | 30 | readily detected |  |  |  |  |  |  |  |  | 
2 | c1cnc2c(SC3CCCC3)ncnc2c1 [WHYKD36] |  |  |  |  |  | 67 | 1.5 | 1.7 | 604 | 2280 | 383 | 1040 | 394 | 1330

Source: patent US10487091B2, “Activators of autophagic flux and phospholipase D and clearance of protein aggregates including tau and treatment of proteinopathies” (THE TRUSTEES OF COLUMBIA UNIVERSITY IN THE CITY OF NEW YORK, priority 2015, dated 2019)
